Drawing on US20240270821A1, “GIP/GLP1/GCG TRI-RECEPTOR AGONISTS AND USES THEREOF” (priority 2023, published 2024), this text covers EC50 for two compounds.

Broadly, the EC50 is the concentration at which the effect is half-maximal.

Where two headings read alike, the source gives them in different places. Starred links: 1 amine or outer side, 2 acyl side, 3 side chain; linkers in the order of their positions; H or OH if unused. Non-standard residues stand in square brackets, D forms with d. Residues, ends and D or L forms follow the SMILES beside them. Groups on a side chain read outwards from the residue. *: point of attachment. C18 diacid = O=C(O)CCCCCCCCCCCCCCCCC(=O)*; αMePhe(2-F) = C[C@](N)(Cc1ccccc1F)C(=O)O; γGlu = O=C(O)[C@H](CCC(=O)[*:2])N[*:1]; AEEA = NCCOCCOCC(=O)O; Aib = CC(C)(N)C(=O)O

Format in all cases: cell-based
Assay [1] deals with T1, hGIPR (Homo sapiens, UniProt P48546).
T1 sequence (P48546 22-466): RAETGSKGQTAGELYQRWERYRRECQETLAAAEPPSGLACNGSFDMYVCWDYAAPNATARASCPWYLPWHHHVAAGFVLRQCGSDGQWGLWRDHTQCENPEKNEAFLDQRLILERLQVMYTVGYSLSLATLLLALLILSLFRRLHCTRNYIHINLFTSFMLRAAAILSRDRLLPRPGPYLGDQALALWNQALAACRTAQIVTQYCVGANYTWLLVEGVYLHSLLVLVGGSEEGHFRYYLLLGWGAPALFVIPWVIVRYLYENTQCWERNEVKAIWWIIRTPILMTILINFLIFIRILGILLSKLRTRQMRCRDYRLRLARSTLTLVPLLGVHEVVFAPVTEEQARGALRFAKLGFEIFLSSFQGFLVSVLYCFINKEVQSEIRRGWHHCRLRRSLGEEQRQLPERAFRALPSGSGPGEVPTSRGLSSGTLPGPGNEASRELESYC
Put plainly: Functional cAMP activity in the presence of 1% HSA. Conditions: read-out: cAMP Rel EC50, hGIPR.

Assay [2] deals with T2, hGLP-1R (Homo sapiens, UniProt P43220). The assay is described as follows: Functional cAMP activity in the presence of 1% HSA. Particulars: read-out: cAMP Rel EC50, hGLP-1R.
The target in another assay is human GcgR (Homo sapiens, UniProt P47871). Put plainly: Functional cAMP activity in the presence of 1% HSA. Particulars: read-out: cAMP Rel EC50, hGcgR.
Assay [3] concerns the target T1, hGIPR. The assay is described as follows: Functional cAMP activation in the presence of 0.1% casein (no HSA). Particulars: read-out: Relative cAMP EC50, hGIPR.
Assay [4] addresses T2, hGLP-1R. The assay is described as above. Conditions: read-out: Relative cAMP EC50, hGLP-1R.
A further assay has as its target hGcgR (Homo sapiens, UniProt P47871). The assay is described as above. Conditions: read-out: Relative cAMP EC50, hGcgR.
[5] abbreviates: in the presence of 0.1% casein (no HSA), geometric mean.
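For Relative cAMP EC50, hGIPR in this document: intracellular cAMP rise after 30 min at 37 °C read by HTRF against a standard curve, scaled between buffer alone (0%) and top control ligand concentration (100%), four-parameter fit.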
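For Relative cAMP EC50, hGLP-1R in this document: intracellular cAMP rise after 30 min at 37 °C read by HTRF, normalized between buffer only (0%) and maximal control ligand (100%), four-parameter variable-slope fit.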
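For Relative cAMP EC50, hGcgR in this document: intracellular cAMP rise after 30 min at 37 °C, read by HTRF against a cAMP standard curve, scaled from buffer only (0%) to maximal control ligand response (100%).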

T2 sequence (P43220 24-463): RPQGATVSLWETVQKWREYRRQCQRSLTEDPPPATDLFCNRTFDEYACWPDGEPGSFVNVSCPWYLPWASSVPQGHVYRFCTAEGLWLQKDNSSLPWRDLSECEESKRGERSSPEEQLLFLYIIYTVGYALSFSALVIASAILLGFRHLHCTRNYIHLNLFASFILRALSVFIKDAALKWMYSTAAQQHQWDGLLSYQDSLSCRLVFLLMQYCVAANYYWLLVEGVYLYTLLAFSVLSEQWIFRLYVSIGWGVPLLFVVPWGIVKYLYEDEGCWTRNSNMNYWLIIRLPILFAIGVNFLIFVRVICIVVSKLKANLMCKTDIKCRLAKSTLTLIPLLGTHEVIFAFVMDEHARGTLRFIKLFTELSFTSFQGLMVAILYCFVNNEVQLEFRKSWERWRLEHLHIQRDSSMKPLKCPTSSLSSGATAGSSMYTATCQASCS
hGcgR, sequence (P47871 26-477): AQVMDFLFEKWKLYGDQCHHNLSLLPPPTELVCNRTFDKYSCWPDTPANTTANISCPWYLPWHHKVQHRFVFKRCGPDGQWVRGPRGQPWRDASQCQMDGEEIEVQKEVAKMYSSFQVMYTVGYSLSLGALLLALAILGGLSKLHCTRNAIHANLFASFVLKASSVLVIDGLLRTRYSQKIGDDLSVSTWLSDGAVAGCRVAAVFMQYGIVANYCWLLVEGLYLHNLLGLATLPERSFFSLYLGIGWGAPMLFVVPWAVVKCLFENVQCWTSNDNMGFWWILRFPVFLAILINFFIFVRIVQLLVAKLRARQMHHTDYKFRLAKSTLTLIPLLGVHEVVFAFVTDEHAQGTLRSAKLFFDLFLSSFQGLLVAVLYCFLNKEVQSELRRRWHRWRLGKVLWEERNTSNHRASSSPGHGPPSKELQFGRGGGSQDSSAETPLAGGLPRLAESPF
human GcgR, sequence (P47871 26-477): as above

With `CC[C@H](C)[C@H](NC(=O)[C@H](Cc1ccccc1)NC(=O)[C@H](C)NC(=O)C(C)(C)NC(=O)[C@H](CCC(N)=O)NC(=O)[C@H](C)NC(=O)[C@H](CCCCNC(=O)COCCOCCNC(=O)CC[C@H](NC(=O)CCCCCCCCCCCCCCCCC(=O)O)C(=O)O)NC(=O)[C@H](CCCCN)NC(=O)[C@H](CC(=O)O)NC(=O)[C@H](CC(C)C)NC(=O)[C@H](CC(C)C)NC(=O)[C@@H](NC(=O)[C@H](CO)NC(=O)[C@H](Cc1ccc(O)cc1)NC(=O)[C@H](CC(=O)O)NC(=O)[C@H](CO)NC(=O)[C@@H](NC(=O)[C@](C)(Cc1ccccc1F)NC(=O)[C@@H](NC(=O)CNC(=O)[C@H](CCC(N)=O)NC(=O)C(C)(C)NC(=O)[C@@H](N)Cc1c[nH]cn1)[C@@H](C)O)[C@@H](C)O)[C@@H](C)CC)C(=O)N[C@@H](CCC(=O)O)C(=O)N[C@@H](Cc1ccc(O)cc1)C(=O)N[C@@H](CC(C)C)C(=O)N[C@@H](CCC(=O)O)C(=O)N[C@@H](CCC(=O)O)C(=O)NCC(=O)NCC(=O)N1CCC[C@H]1C(=O)N[C@@H](CO)C(=O)N[C@@H](CO)C(=O)NCC(=O)N[C@@H](C)C(=O)N1CCC[C@H]1C(=O)N1CCC[C@H]1C(=O)N1CCC[C@H]1C(=O)N[C@@H](CO)C(N)=O` [Example 425] (H-H[Aib]QGT[αMePhe(2-F)]TSDYSILLDKK([AEEA-γGlu-C18 diacid])AQ[Aib]AFIEYLEEGGPSSGAPPPS-NH2; N-terminus assumed), the EC50 on hGIPR [1] was 46.9 nM; at hGLP-1R [2] it was 20.3 nM; on human GcgR, 1150 nM; on hGIPR [3], 0.0997 nM; at hGLP-1R [4], 0.15 nM; on hGcgR, 5.49 nM.
Turning to `CC[C@H](C)[C@H](NC(=O)[C@H](Cc1ccccc1)NC(=O)[C@H](CCCN)NC(=O)C(C)(C)NC(=O)[C@H](CCC(N)=O)NC(=O)[C@H](C)NC(=O)[C@H](CCCCNC(=O)COCCOCCNC(=O)CC[C@H](NC(=O)CCCCCCCCCCCCCCCCC(=O)O)C(=O)O)NC(=O)[C@H](CCCN)NC(=O)[C@H](CC(=O)O)NC(=O)[C@H](CC(C)C)NC(=O)[C@](C)(CC(C)C)NC(=O)[C@@H](NC(=O)[C@H](CO)NC(=O)[C@H](Cc1ccncc1)NC(=O)[C@H](CC(=O)O)NC(=O)[C@H](CO)NC(=O)[C@@H](NC(=O)[C@](C)(Cc1ccccc1F)NC(=O)[C@@H](NC(=O)CNC(=O)[C@H](CCC(N)=O)NC(=O)C(C)(C)NC(=O)[C@@H](N)Cc1ccc(O)cc1)[C@@H](C)O)[C@@H](C)O)[C@@H](C)CC)C(=O)N[C@H](CCC(=O)O)C(=O)N[C@@](C)(Cc1ccc(O)cc1)C(=O)N[C@@H](CC(C)C)C(=O)N[C@@H](CC(C)C)C(=O)N[C@@H](CCC(=O)O)C(=O)NCC(=O)NCC(=O)N1CCC[C@H]1C(=O)N[C@@H](CO)C(=O)N[C@@H](CO)C(=O)NCC(=O)N[C@@H](CCC(=O)O)C(=O)N1CCC[C@H]1C(=O)N1CCC[C@H]1C(=O)N1CCC[C@H]1C(=O)N[C@@H](CO)C(N)=O` [Example 367], the EC50 worked out at 4.89 nM at hGIPR [1]; 30.1 nM at hGLP-1R [2]; 668 nM on human GcgR; 0.0215 nM on hGIPR [3] (setting [5]); 0.421 nM at hGLP-1R [4] (setting [5]); 7.95 nM at hGcgR (setting [5]).
